Results: US20090069565A1, “NEW INDOLE DERIVATIVES AS FACTOR XA INHIBITORS” (priority 2001, published 2009)

Target: human factor Xa (Homo sapiens, UniProt P00742)
Experiment: Factor Xa assay (chromogenic, substrate S-2765);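 also: purified enzyme preincubated with inhibitor for 10 min before substrate addition, final reaction volume 100 µl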
Type: biochemical
Settings: read-out: Ki(FXa)

Sequence of human factor Xa (P00742 235-488 limits assumed): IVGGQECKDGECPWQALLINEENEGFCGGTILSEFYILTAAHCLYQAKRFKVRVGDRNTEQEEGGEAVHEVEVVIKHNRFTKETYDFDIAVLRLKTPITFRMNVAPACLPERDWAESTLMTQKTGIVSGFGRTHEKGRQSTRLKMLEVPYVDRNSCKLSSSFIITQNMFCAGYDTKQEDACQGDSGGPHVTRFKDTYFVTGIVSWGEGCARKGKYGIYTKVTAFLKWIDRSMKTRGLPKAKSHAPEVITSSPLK
Sequence of human factor Xa (P00742 41-179 partner limits assumed): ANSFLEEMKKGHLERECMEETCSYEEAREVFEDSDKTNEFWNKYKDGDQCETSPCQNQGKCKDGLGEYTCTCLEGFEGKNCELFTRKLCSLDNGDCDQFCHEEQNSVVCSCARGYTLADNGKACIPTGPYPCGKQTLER

Row | Compound | Ki [nM]
1 | CCOC(=O)OC(C)OC(=O)c1ccc2c(c1)cc(C(=O)NC1CCN(C(C)C)CC1)n2Cc1cc(-c2ccc(Cl)s2)on1 (centres unmarked) [Example 268, 1-[5-(5-Chloro-thiophen-2-yl)-isoxazol-3-ylmethyl]-2-(1-isopropyl-piperidin-4-ylcarbamoyl)-1H-indole-5-carboxylic acid 1-ethoxycarbonyloxy-ethyl ester] | 42
2 | CCOC(=O)OC(C)OC(=O)c1cccc2c1cc(C(=O)NC1CCN(C(C)C)CC1)n2Cc1cc(-c2ccc(Cl)s2)on1 (centres unmarked) [Example 269, 1-[5-(5-Chloro-thiophen-2-yl)-isoxazol-3-ylmethyl]-2-(1-isopropyl-piperidin-4-ylcarbamoyl)-1H-indole-4-carboxylic acid 1-ethoxycarbonyloxy-ethyl ester] | 7
3 | CC(C)N1CCC(NC(=O)c2cc3c(C(=O)OCOC(=O)C(C)(C)C)cccc3n2Cc2cc(-c3ccc(Cl)s3)on2)CC1 [Example 270, 1-[5-(5-Chloro-thiophen-2-yl)-isoxazol-3-ylmethyl]-2-(1-isopropyl-piperidin-4-ylcarbamoyl)-1H-indole-4-carboxylic acid 2,2-dimethyl-propionyloxymethyl ester] | 13
4 | CC(OC(=O)c1ccc2c(c1)cc(C(=O)NC1CCN(C(C)C)CC1)n2Cc1cc(-c2ccc(Cl)s2)on1)OC(=O)C(C)(C)C (centres unmarked) [Example 271, 1-[5-(5-Chloro-thiophen-2-yl)-isoxazol-3-ylmethyl]-2-(1-isopropyl-piperidin-4-ylcarbamoyl)-1H-indole-5-carboxylic acid 1-(2,2-dimethyl-propionyloxy)-ethyl ester] | 92
5 | CC(OC(=O)c1cccc2c1cc(C(=O)NC1CCN(C(C)C)CC1)n2Cc1cc(-c2ccc(Cl)s2)on1)OC(=O)C(C)(C)C (centres unmarked) [Example 272, 1-[5-(5-Chloro-thiophen-2-yl)-isoxazol-3-ylmethyl]-2-(1-isopropyl-piperidin-4-ylcarbamoyl)-1H-indole-4-carboxylic acid 1-(2,2-dimethyl-propionyloxy)-ethyl ester] | 17
